System: angiogenesis genes in dermal microvascular endothelial cells
Experiment: Real time RT-PCR of angiogenesis gene expression during endothelial tube formation
Format: cell-based
Settings: 1 μM SM, 24 hours

## COc1ccc(CC2C(=O)NC(C)C(=O)N(C)C3Cc4ccc(cc4)Oc4cc(ccc4O)CC(C(=O)NC(C)C(=O)NC(C)C(=O)N2C)N(C)C3=O)cc1 (centres unmarked) [compound 259969]
  Log2 fold-change of gene expression: 1839: −4.2
  Log2 fold-change of gene expression: 4247: 0.2
  Log2 fold-change of gene expression: 5569: 4.6
  Log2 fold-change of gene expression: 8131: −0.2
  Log2 fold-change of gene expression: 9569: −1.7
  Log2 fold-change of gene expression: 10988: 0.3
  Log2 fold-change of gene expression: 23001: 0.3
  Log2 fold-change of gene expression: 55332: 0.1
  Log2 fold-change of gene expression: 57722: −0.1
  Log2 fold-change of gene expression: 58488: 0.4
  Log2 fold-change of gene expression: 90780: −2.4
  Log2 fold-change of gene expression: 134265: −0.6
  Log2 fold-change of gene expression: AKT1: −1.4
  Log2 fold-change of gene expression: ANGPT1: 1.4
  Log2 fold-change of gene expression: ANGPT2: 0.9
  Log2 fold-change of gene expression: ANGPTL3: 3.6
  Log2 fold-change of gene expression: ANGPTL4: 1.5
  Log2 fold-change of gene expression: ANPEP: 0.2
  Log2 fold-change of gene expression: ANTXR1: −1.4
  Log2 fold-change of gene expression: APOE: 0.8
  Log2 fold-change of gene expression: ARHGEF1: −0.8
  Log2 fold-change of gene expression: Acvrl1: −1.9
  Log2 fold-change of gene expression: Adcy4: −0.6
  Log2 fold-change of gene expression: BAL1: 0.4
  Log2 fold-change of gene expression: BMP1: −0.6
  Log2 fold-change of gene expression: C1orf54: −6.1
  Log2 fold-change of gene expression: CALD1: −0.6
  Log2 fold-change of gene expression: CCL2: 3.6
  Log2 fold-change of gene expression: CCL11: 0.0
  Log2 fold-change of gene expression: CD248: 0.6
  Log2 fold-change of gene expression: CDH5: −1.6
  Log2 fold-change of gene expression: CENTD3: −1.0
  Log2 fold-change of gene expression: CLIC1: 1.8
  Log2 fold-change of gene expression: COL4A3: 3.2
  Log2 fold-change of gene expression: COL18A1: 1.9
  Log2 fold-change of gene expression: COMT: −1.7
  Log2 fold-change of gene expression: CST4: 0.4
  Log2 fold-change of gene expression: CTTNBP2NL: −1.0
  Log2 fold-change of gene expression: CXCL3: 11.6
  Log2 fold-change of gene expression: CXCL5: 10.2
  Log2 fold-change of gene expression: CXCL6: 1.0
  Log2 fold-change of gene expression: CXCL9: 0.5
  Log2 fold-change of gene expression: CXCL10: 2.8
  Log2 fold-change of gene expression: Calcr1: −2.9
  Log2 fold-change of gene expression: Caskin2: −2.3
  Log2 fold-change of gene expression: Ccbp2: 5.6
  Log2 fold-change of gene expression: Cldn5: 0.4
  Log2 fold-change of gene expression: DGKG: 6.1
  Log2 fold-change of gene expression: DKK3: −2.7
  Log2 fold-change of gene expression: DLL4: −4.1
  Log2 fold-change of gene expression: DUT: −1.9
  Log2 fold-change of gene expression: EFNA1: 7.8
  Log2 fold-change of gene expression: EFNA3: 0.3
  Log2 fold-change of gene expression: EFNB2: −6.6
  Log2 fold-change of gene expression: EGF: 0.2
  Log2 fold-change of gene expression: ENG: −0.7
  Log2 fold-change of gene expression: EPHB4: 0.3
  Log2 fold-change of gene expression: EREG: 9.3
  Log2 fold-change of gene expression: ESAM1: −1.6
  Log2 fold-change of gene expression: EXTL3: 0.4
  Log2 fold-change of gene expression: Egf17: −2.3
  Log2 fold-change of gene expression: Ehd4: −0.7
  Log2 fold-change of gene expression: Entpd1: −5.6
  Log2 fold-change of gene expression: Epas1: 1.5
  Log2 fold-change of gene expression: EphB1: 0.6
  Log2 fold-change of gene expression: Erg: −3.9
  Log2 fold-change of gene expression: FGF1: 5.7
  Log2 fold-change of gene expression: FGF2: 2.5
  Log2 fold-change of gene expression: FGFR3: 1.2
  Log2 fold-change of gene expression: FIGF: 0.2
  Log2 fold-change of gene expression: FLT1: −0.7
  Log2 fold-change of gene expression: Fgd5: −0.8
  Log2 fold-change of gene expression: GPCR124: −4.6
  Log2 fold-change of gene expression: GRRP1: 0.6
  Log2 fold-change of gene expression: Grp116: −5.5
  Log2 fold-change of gene expression: HAND2: 1.4
  Log2 fold-change of gene expression: HGF: 1.5
  Log2 fold-change of gene expression: HIF1A: 0.7
  Log2 fold-change of gene expression: HPSE: 2.6
  Log2 fold-change of gene expression: Hspa12b: −10.2
  Log2 fold-change of gene expression: ID1: 1.5
  Log2 fold-change of gene expression: ID3: 2.5
  Log2 fold-change of gene expression: IFNA1: 1.1
  Log2 fold-change of gene expression: IFNB1: 1.6
  Log2 fold-change of gene expression: IFNG: 6.0
  Log2 fold-change of gene expression: IGF1: −2.6
  Log2 fold-change of gene expression: IL1B: 1.3
  Log2 fold-change of gene expression: IL6: 9.4
  Log2 fold-change of gene expression: IL8: 11.3
  Log2 fold-change of gene expression: ITGAV: −0.9
  Log2 fold-change of gene expression: ITGB3: −2.9
  Log2 fold-change of gene expression: Icam1: 2.8
  Log2 fold-change of gene expression: Icam2: 7.5
  Log2 fold-change of gene expression: JAG1: 1.7
  Log2 fold-change of gene expression: KDR: −0.5
  Log2 fold-change of gene expression: Kifc1: −4.8
  Log2 fold-change of gene expression: LAMAS5: −0.8
  Log2 fold-change of gene expression: LECT1: −8.0
  Log2 fold-change of gene expression: LEP: 0.8
  Log2 fold-change of gene expression: Lasts2: 1.5
  Log2 fold-change of gene expression: Lrrk1: 0.3
  Log2 fold-change of gene expression: MDK: −1.0
  Log2 fold-change of gene expression: MMP2: −0.1
  Log2 fold-change of gene expression: MMP9: 4.3
  Log2 fold-change of gene expression: MMP11: 0.1
  Log2 fold-change of gene expression: MRC2: −0.6
  Log2 fold-change of gene expression: Mmm2: −7.5
  Log2 fold-change of gene expression: Myo1b: −3.0
  Log2 fold-change of gene expression: NID1: −3.6
  Log2 fold-change of gene expression: NM023516: 0.9
  Log2 fold-change of gene expression: NRP1: −2.6
  Log2 fold-change of gene expression: NRP2: −3.5
  Log2 fold-change of gene expression: Notch4: −0.3
  Log2 fold-change of gene expression: Npr3: 2.7
  Log2 fold-change of gene expression: PALD: −1.3
  Log2 fold-change of gene expression: PDCD2: −1.7
  Log2 fold-change of gene expression: PDGFA: 1.1
  Log2 fold-change of gene expression: PECAM1: −3.0
  Log2 fold-change of gene expression: PGF: −7.2
  Log2 fold-change of gene expression: PLAU: 3.8
  Log2 fold-change of gene expression: PLG: −1.0
  Log2 fold-change of gene expression: PNMT: −0.1
  Log2 fold-change of gene expression: PROK2: 2.2
  Log2 fold-change of gene expression: PTGS1: 2.9
  Log2 fold-change of gene expression: PTPRCAP: 0.9
  Log2 fold-change of gene expression: Pltp: 1.4
  Log2 fold-change of gene expression: Ptprb: −0.1
  Log2 fold-change of gene expression: Ptprm: 1.7
  Log2 fold-change of gene expression: RAMP2: −5.9
  Log2 fold-change of gene expression: RASD2: 0.5
  Log2 fold-change of gene expression: Rasip1: −1.1
  Log2 fold-change of gene expression: S1PR1: −0.3
  Log2 fold-change of gene expression: SERPINF1: 6.5
  Log2 fold-change of gene expression: SPHK1: 3.2
  Log2 fold-change of gene expression: STAB1: 0.5
  Log2 fold-change of gene expression: Sdc4: 4.0
  Log2 fold-change of gene expression: Sdpr: 0.9
  Log2 fold-change of gene expression: Slc43a3: 0.2
  Log2 fold-change of gene expression: Slco2a1: −2.4
  Log2 fold-change of gene expression: TEK: 1.6
  Log2 fold-change of gene expression: TGFA: 8.7
  Log2 fold-change of gene expression: TGFB1: 0.3
  Log2 fold-change of gene expression: TGFB2: 1.3
  Log2 fold-change of gene expression: TGFBR1: 1.1
  Log2 fold-change of gene expression: THBS1: −0.1
  Log2 fold-change of gene expression: THBS2: 2.6
  Log2 fold-change of gene expression: THY1: −3.0
  Log2 fold-change of gene expression: TIMP1: 2.5
  Log2 fold-change of gene expression: TIMP2: 0.0
  Log2 fold-change of gene expression: TIMP3: −0.6
  Log2 fold-change of gene expression: TNF: 9.3
  Log2 fold-change of gene expression: TNS1: −0.3
  Log2 fold-change of gene expression: TNS3: −8.0
  Log2 fold-change of gene expression: TRA2B: 0.6
  Log2 fold-change of gene expression: TYMP: 0.1
  Log2 fold-change of gene expression: VEGFA: 5.7
  Log2 fold-change of gene expression: VEGFC: 1.9
  Log2 fold-change of gene expression: VGLL4: 1.3
  Log2 fold-change of gene expression: Vwf: −5.4
  Log2 fold-change of gene expression: copa: −2.1
  Log2 fold-change of gene expression: itbp4: −1.7
  Log2 fold-change of gene expression: ralb: 0.7
  Log2 fold-change of gene expression: stard9: 0.0
1st listing (r49)
  Log2 fold-change of gene expression: B2M: 1.2
1st listing (r50)
  Log2 fold-change of gene expression: HPRT1: 0.6
1st listing (r51)
  Log2 fold-change of gene expression: RPL13A: 1.2
1st listing (r52)
  Log2 fold-change of gene expression: GADPH: −1.0
1st listing (r53)
  Log2 fold-change of gene expression: ACTB: −2.5
1st listing (r74)
  Log2 fold-change of gene expression: PLXDC1: 2.3
1st listing (r91)
  Log2 fold-change of gene expression: TNFAIP2: 4.6
1st listing (r95)
  Log2 fold-change of gene expression: Robo4: −4.1
1st listing (r134)
  Log2 fold-change of gene expression: 151516: 0.5
2nd listing (r92)
  Log2 fold-change of gene expression: TNFAIP2: 4.7
2nd listing (r97)
  Log2 fold-change of gene expression: B2M: 1.5
2nd listing (r98)
  Log2 fold-change of gene expression: HPRT1: −0.5
2nd listing (r99)
  Log2 fold-change of gene expression: RPL13A: 0.7
2nd listing (r100)
  Log2 fold-change of gene expression: GADPH: 0.0
2nd listing (r101)
  Log2 fold-change of gene expression: ACTB: −2.2
2nd listing (r104)
  Log2 fold-change of gene expression: PLXDC1: −2.4
2nd listing (r139)
  Log2 fold-change of gene expression: 151516: 0.5
2nd listing (r188)
  Log2 fold-change of gene expression: Robo4: 0.3
3rd listing (r145)
  Log2 fold-change of gene expression: B2M: 0.5
3rd listing (r146)
  Log2 fold-change of gene expression: HPRT1: 0.8
3rd listing (r147)
  Log2 fold-change of gene expression: RPL13A: 0.0
3rd listing (r148)
  Log2 fold-change of gene expression: GADPH: −1.7
3rd listing (r149)
  Log2 fold-change of gene expression: ACTB: −2.2
4th listing (r193)
  Log2 fold-change of gene expression: B2M: 0.8
4th listing (r194)
  Log2 fold-change of gene expression: HPRT1: 0.5
4th listing (r195)
  Log2 fold-change of gene expression: RPL13A: 0.0
4th listing (r196)
  Log2 fold-change of gene expression: GADPH: −2.1
4th listing (r197)
  Log2 fold-change of gene expression: ACTB: 0.4

From patent publication US9504729B2, “Antiangiogenic small molecules and methods of use” (The United States of America, as represented by the …, priority 2009, dated 2016)
